PMC11247486, “Improving the In Vivo Stability of [^52Mn]Mn(II) Complexes with 18-Membered Macrocyclic Chelators for PET Imaging” (Journal of Medicinal Chemistry, 2024)

Tests used:
[1] = 1H NMR relaxometry (relaxivity as a function of pH); format: physicochemical; conditions: around neutral pH, 61 MHz and 25 °C
Excerpt: The studies reported by Branco assumed the formation of a protonated [Mn(HL)]^3+ species for the Mn-PYAN complex characterized by protonation constant log KMnLH = 5.19 (KMnLH = [MnHL]/[MnL] × [H^+]).[42] However, our pH-potentiometric data could be fitted very well without considering the formation of protonated species or hydroxo-complexes. In order to confirm that the equilibrium model used to fit the pH-potentiometric data was correct, we measured the relaxivity (r1p) of aqueous solutions of the complexes as a function of pH (Figure 4). Relaxivity measures the ability of a paramagnetic solute to enhance the longitudinal relaxation rate of solvent water molecules, normalized for a 1 mM concentration of the paramagnetic ion.[45] The r1p values measured around neutral pH values (0.83 and 1.40 mM^–1 s^–1 at 61 MHz and 25 °C for Mn-PYAN and Mn-CHXPYAN, respectively) are typical of complexes that lack one or more water molecules in the inner coordination sphere, the observed relaxivity being the result of the outer-sphere contribution.[46] Relaxivity is fairly constant in the pH range of 6–9 but increases below pH ∼ 6 due to complex dissociation, reaching a relaxivity of 6.00 mM^–1 s^–1 at pH 3, 61 MHz, and 25 °C that is characteristic of the [Mn(H2O)6]^2+ complex.[47] The relaxivity profile matches the speciation diagrams calculated using the equilibrium constants obtained by pH potentiometry very well, which provides support for the equilibrium model used to fit the potentiometric data. It is worth noting that complex dissociation takes place at a lower pH for Mn-CHXPYAN than for Mn-PYAN, as expected, considering their pMn values.
The relaxivity values were calculated from the longitudinal relaxation time of H2O protons (T1) measured at 61 MHz on a Stelar relaxometer connected to a Bruker WP80 NMR electromagnet adapted to variable-field measurements (15–80 MHz proton Larmor frequency). […] The longitudinal relaxation time was measured with the “inversion recovery” method (180°–τ–90°) by using 12 different τ values with a typical 90° pulse width of 10.7 μs, 4 scans. […]

[2] = Transmetalation (dissociation) kinetics of the Mn(II) complexes with Cu2+; format: physicochemical
Method: There is a wide consensus among the coordination chemistry community that kinetic inertness is more important for the safe use of metal complexes for imaging applications than thermodynamic stability.[8],[49],[50] Thus, we conducted a detailed investigation of the transmetalation kinetics of the Mn-PYAN and Mn-CHXPYAN complexes, by following their exchange reactions with Cu^2+ in the pH range of 2.5–4.5 (eq 3). [drawing 3] 3
All reactions were carried out in the presence of a large excess of Cu^2+ in order to guarantee the pseudo-first-order kinetic conditions. The transmetalation of Mn-PYAN in the pH range ∼2.0–4.5 is very fast, and thus the rates of the reactions were measured using the stopped-flow technique. Conversely, the exchange reactions of the Mn-CHXPYAN complex are slow and could be studied by using conventional methods. The transmetalation reactions of Mn-PYAN and Mn-CHXPYAN were monitored by following the formation of the corresponding Cu(II) complexes at 295 nm.
The kd values increase upon increase in [H^+] and are independent of the concentration of Cu^2+ as it was found for Mn-PCTA, Mn-PC3AM, and Mn-bispidine complexes.[49],[51] […] The increase in the kd values with increasing H^+ concentration can be interpreted in terms of the extremely slow spontaneous (k0, eq 4) and the proton-assisted (k*[Mn(HL), eq 6) dissociation of Mn(II) complexes. The saturation behavior of the plots of kd versus [H^+] (Figure 5) is characteristic for the equilibrium formation and the accumulation of the *[Mn(HL)] intermediate characterized by the *KH protonation constant (eq 5). The analysis of the rate constants obtained for Mn-CHXPYAN indicates a second-order dependence of kd on [H^+], which can be explained by the proton-assisted dissociation of the *[Mn(HL)] intermediate (k^H*[Mn(HL)], eq 7). [drawing 4] 4 [drawing 5] 5 [drawing 6] 6 [drawing 7] 7
In the presence of excess of the exchanging ion, the transmetalation can be treated as a pseudo-first-order process, and the rate of reactions can be expressed with eq 8, where kd is a pseudo-first-order rate constant and [MnL]t is the total concentration of the complex. [drawing 8] 8
Through consideration of all the possible pathways, the rate of the transmetalation of Mn-PYAN and Mn-CHXPYAN with Cu^2+ can be expressed by eq 9 [drawing 9] 9 Considering the total concentration of the Mn(II) complex ([MnL]t = [MnL] + [*Mn(HL)], as well as the equation defining the protonation constant for the formation of the *[Mn(HL)] intermediate (eq 5) and eq 8, the pseudo-first-order rate constant can be expressed as follows [drawing 10] 10 where k1 = k*[Mn(HL)] × *KH and k2 = k^H*[Mn(HL)] × *KH. The rate and protonation constants characterizing the transmetalation of Mn-PYAN and Mn-CHXPYAN with Cu^2+ have been calculated by fitting the kd values presented in Figure 5 to eq 10 and the values obtained are compared with the corresponding values of Mn-DOTA, Mn-DO3A, Mn-PCTA, Mn-PC3AM^H, and Mn-bispidine in Table 3.
Rates of the metal exchange reactions of Mn-PYAN and Mn-CHXPYAN with Cu^2+ were measured by spectrophotometry by following the formation of the related Cu(II) complexes at 295 nm with an Applied Photophysics DX-17MV stopped-flow instrument and PerkinElmer Lambda 365 UV–vis spectrophotometer using 1.0 cm cells, respectively. The concentration of Mn-PYAN and Mn-CHXPYAN was 1.0 × 10^–4 M, whereas the concentration of Cu^2+ was 10 and 20 times higher in order to guarantee pseudo-first-order conditions. The temperature was maintained at 25 °C and the ionic strength of the solutions was kept constant with 0.15 M NaCl. The exchange rates were studied in the pH range of ca. 2.0–4.5. To keep the pH values constant, monochloroacetic acid (pH range 2.0–3.3), 1,4-dimethylpiperazine (pH range 3.3–4.1), and N-methylpiperazine (pH range 4.1–4.5) buffers were used (0.01 M). […]

| SMILES | relaxivity r1p [1] [mM^–1 s^–1] | t1/2 at pH = 7.4 ([2]; dissociation half-life of the Mn(II) complex, 0.15 M NaCl, 25 °C) [h] | acid-catalyzed dissociation rate kd ([2]; pH = 5.5, 25 °C) | t1/2 ([2]; pH = 5.5, 25 °C) [h] | k1 lower than that determined for Mn-PYAN ([2]; ratio of k1 values) [times] |
| --- | --- | --- | --- | --- | --- |
| [Mn+2].c1cc2nc(c1)CNCCNCc1cccc(n1)CNCCNC2 [Mn-PYAN] | 0.83 | 5.85 |  |  |  |
| [Mn+2].c1cc2nc(c1)CN[C@@H]1CCCC[C@H]1NCc1cccc(n1)CN[C@@H]1CCCC[C@H]1NC2 [Mn-CHXPYAN] | 1.40 |  | 7.9 × 10^–7 s^–1 | 240 | 3600 |
